Data as given in patent US5451601A, “Perhydroisoindole derivatives and pharmaceutical compositions containing them” (Rhone-Poulenc Rorer S.A., priority 1991, dated 1995).

Legend:
Assay type in all cases: in vivo
[1] = tested on: septide (agonist of substance P); assay: inhibition of the increase in capillary permeability brought about by septide, technique of A. Saria et al. adapted to mice; settings: Mus musculus, sc, septide-induced increase in capillary permeability
Excerpt: The study of a number of isoindole derivatives of general formula (I) according to the technique of A. Saria et al., Arch.

[2] = analgesic activity, technique of Siegmund E. et al.; settings: po
Excerpt: Exp. Biol. Med., 95, 729 (1957).

[3] = tested on: substance P; assay: antagonism of the hypotension induced by substance P, technique of C. A. Maggi et al.; settings: rats; product 1 mg/kg i.v./min for 5 min; hypotension induced by i.v. injection of substance P
Excerpt: Injection of substance P into animals produces hypotension. The products studied in the technique of C. A. Maggi et al., J. Auton.

In the case of CN(C)CCCOc1ccccc1CC(=O)N1C[C@@H]2[C@H](F)CCC(c3ccccc3)(c3ccccc3)[C@@H]2C1.Cl [Example 1, (3aR,7R,7aR)-2-{[2-(3-dimethylaminopropoxy)phenyl]acetyl}-4,4-diphenyl-7-fluoroperhydroisoindole hydrochloride], the ED50 [1] is reported as 0.7 mg/kg, the ED50 [2] is reported as 3 mg/kg and the “% inhibition of hypotension” value [3] is reported as 73%.
COc1ccccc1[C@H](C)C(=O)N1C[C@@H]2[C@H](F)CCC(c3ccccc3)(c3ccccc3)[C@@H]2C1 [Example 7, (3aR,7R,7aR)-4,4-diphenyl-7-fluoro-2-[(S)-2-(2-methoxyphenyl)propionyl]perhydroisoindole] showed an ED50 [1] of 0.32 mg/kg and an ED50 [2] of 1.5 mg/kg.
In the case of O=C(Cc1ccccc1OCCCN1CCCC1)N1C[C@@H]2[C@H](F)CCC(c3ccccc3)(c3ccccc3)[C@@H]2C1 [Example 2], the ED50 [1] is reported as 0.3 mg/kg, the ED50 [2] is reported as 2 mg/kg and the “% inhibition of hypotension” value [3] is reported as 68%.
